SMILES strings stand for the structures.

The subject of the experiment is NIH3T6.7 and MDA-MB-231 cells. The experiment in a line: Cell targeting ability and drug release by fluorescence microscopy. As to conditions: 0.05 mM based on doxorubicin, 30 minutes incubation.

Procedure: For each of 12 wells, a cover glass was put on a bottom, 3×10^5 of each of NIH3T6.7 and MDA-MB-231 cells were dispensed on the glass per well to incubate for 12 hours, and washed with PBS three times. After the washing with PBS, 0.05 mM of a Herceptin-binding target-specific stimuli-sensitive nanocomposite based on doxorubicin, an IgG-binding stimuli-sensitive nanocomposite as a control group, and doxorubicin were each added to the cells, and incubated for 30 minutes. After the cells were washed with PBS, a dye for a cell nucleus (Hoechst dye) was added to the cells, reacted for 10 minutes and washed with PBS three times, and then the cover glass was fixed to a slide glass to observe microscope images.

As to `COc1cccc2c1C(=O)c1c(O)c3c(c(O)c1C2=O)C[C@@](O)(C(=O)CO)C[C@@H]3O[C@H]1C[C@H](N)[C@H](O)[C@H](C)O1` [Doxorubicin, doxorubicin], the “doxorubicin identified in cell nucleus (microscope images)” value is on record as “identified from a nucleus of the doxorubicin-treated cell without distinction of cells”.

For the origin of these results see patent US20130183249A1, “Stimulus Sensitive Magnetic Nanocomposite Using Pyrene Polymer, and Contrast Medium Composition Containing the Nanocomposite” (INDUSTRY ACADEMIC COOPERATION FOUNDATION YOUNSEI UNIVERSITY, priority 2010, published 2013).
